Laboratory results from US20230113609A1, “SSTR5 ANTAGONISTS” (Kallyope, Inc., priority 2019, published 2023).

Experiments:
[1] = Oral bioavailability of the compounds after oral dosing in rat; conditions: in vivo, IV 1 mg/kg, PO 5 mg/kg, vehicle 5% DMSO + 30% PEG400 + 65% water
Method: Oral bioavailability of the compounds was determined in Sprague Dawley rats (Compound 90) or Wistar Han rats (Compound 81). The table below summarizes the results. Each compound was dosed intravenously (IV) at 1 mg/kg and orally (PO) 5 mg/kg using the respective vehicles listed below. The compounds display low (<10%) oral bioavailability (F%).

human SSTR5 = target: T1, human SSTR5 (Homo sapiens, UniProt P35346); test: Inositol phosphate accumulation assay (IP1 HTRF, antagonist mode); type: cell-based; conditions: CHO-K1 cells co-expressing human SSTR5 with Gqi5, SST28 agonist at concentration generating 90% of full activation
T1 construct: expressed in transfected cells
T1 sequence (P35346 whole entry): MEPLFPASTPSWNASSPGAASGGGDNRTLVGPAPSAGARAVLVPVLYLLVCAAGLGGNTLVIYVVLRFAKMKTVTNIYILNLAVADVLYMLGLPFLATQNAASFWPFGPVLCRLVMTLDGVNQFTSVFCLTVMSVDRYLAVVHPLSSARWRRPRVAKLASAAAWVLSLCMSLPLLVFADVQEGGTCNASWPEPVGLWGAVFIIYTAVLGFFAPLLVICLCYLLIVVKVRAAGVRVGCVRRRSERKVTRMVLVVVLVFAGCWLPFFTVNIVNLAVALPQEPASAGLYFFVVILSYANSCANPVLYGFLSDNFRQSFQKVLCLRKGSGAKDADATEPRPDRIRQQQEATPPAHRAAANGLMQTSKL
Summary of the method: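 CHO-K1 cells stably co-expressing human SSTR5 and chimeric Gqi5 were pre-incubated with compound 15 minutes at 37° C, then stimulated with SST28 (30 nM as added, about EC90) for 90 minutes. IP1 read by HTRF (665/620 nm). % inhibition normalized to Max/Min controls; IC50 and maximal inhibition from 4-parameter fit.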

Compound	bioavailability ([1]; Sprague Dawley rats) [%]	IC50 (human SSTR5) [µM]	bioavailability ([1]; Wistar Han rats) [%]
CCOc1cc(CN2CCC3(CC2)CN(c2ccc(C(=O)NCCNC(=O)NC(CO)(CO)CO)cc2)C(=O)O3)cc(OCC)c1-c1ccc(F)cc1 [Example 7, 4-(8-((2,6-diethoxy-4′-fluoro-[1,1′-biphenyl]-4-yl)methyl)-2-oxo-1-oxa-3,8-diazaspiro[4.5]decan-3-yl)-N-(2-(3-(1,3-dihydroxy-2-(hydroxymethyl)propan-2-yl)ureido)ethyl)benzamide]		≤ 0.1	
CCOc1cc(C(=O)OC)c(C2CC2)cc1CN1CCC2(CC1)CC(=O)N(c1ccc(C(=O)NCCC(O)CO)cc1)C2 (stereo not shown) [Example 48, methyl 2-cyclopropyl-4-((2-(4-((3,4-dihydroxybutyl)carbamoyl)phenyl)-3-oxo-2,8-diazaspiro[4.5]decan-8-yl)methyl)-5-ethoxybenzoate]		0.1 to 1	
CCOc1cc(C(=O)OC)c(C2CC2)cc1CN1CCC2(CC1)CC(=O)N(c1ccc(C(=O)NCCOCC[N+]34CCN(CC3)CC4)cc1)C2 [Example 45, 1-(2-(2-(4-(8-(5-cyclopropyl-2-ethoxy-4-(methoxycarbonyl)benzyl)-3-oxo-2,8-diazaspiro[4.5]decan-2-yl)benzamido)ethoxy)ethyl)-1,4-diazabicyclo[2.2.2]octan-1-ium]		> 5	
CCOc1cc(C(=O)OC)c(C2CC2)cc1CN1CCC2(CC1)CC(=O)N(c1ccc(C(=O)NCCCP(=O)(O)O)cc1)C2 [Example 32, (3-(4-(8-(5-cyclopropyl-2-ethoxy-4-(methoxycarbonyl)benzyl)-3-oxo-2,8-diazaspiro[4.5]decan-2-yl)benzamido)propyl)phosphonic acid]		> 5	

Results, then the compound that gave them:

bioavailability ([1]; Sprague Dawley rats) [%]	IC50 (human SSTR5) [µM]	bioavailability ([1]; Wistar Han rats) [%]	Compound
2.6	≤ 0.1		CCOc1cc(-c2ccc(F)cn2)c(C2CC2)cc1CN1CCC2(CC1)CN([C@H]1CC[C@](C)(C(=O)NCCOCCO)CC1)C(=O)O2 [compound 90]
	≤ 0.1	7	CCOc1cc(-c2ccc(F)cc2)c(C2CC2)cc1CN1CCC2(CC1)CN(c1ccc(S(=O)(=O)NCCOCCO)cc1)C(=O)O2 [Example 81, 4-(8-((2-cyclopropyl-5-ethoxy-4′-fluoro-[1,1-biphenyl]-4-yl)methyl)-2-oxo-1-oxa-3,8-diazaspiro[4.5]decan-3-yl)-N-(2-(2-hydroxyethoxy)ethyl)benzenesulfonamide]
	≤ 0.1		CCOc1cc(-c2ccc(F)cn2)c(C2CC2)cc1CN1CCC2(CC1)CN(c1ccc(S(=O)(=O)NCCOCCO)cc1)C(=O)O2 [Example 82, 4-(8-(5-cyclopropyl-2-ethoxy-4-(5-fluoropyridin-2-yl)benzyl)-2-oxo-1-oxa-3,8-diazaspiro[4.5]decan-3-yl)-N-(2-(2-hydroxyethoxy)ethyl)benzenesulfonamide]
	≤ 0.1		CCOc1cc(-c2ccc(F)cc2)c(C2CC2)cc1CN1CCC2(CC1)CN(c1ccc(S(=O)(=O)NCCCNC(=N)N)cc1)C(=O)O2 [compound 80, 4-(8-((2-cyclopropyl-5-ethoxy-4′-fluoro-[1,1′-biphenyl]-4-yl)methyl)-2-oxo-1-oxa-3,8-diazaspiro [4.5]decan-3-yl)-N-(3-guanidinopropyl)benzenesulfonamide]
